Patent publication US4004023A, “1-(4-Butylphenyl)-1-(3,4-methylenedioxyphenyl)-2-nitroalkanes and synergistic insecticidal mixtures therewith” (Mobil Oil Corporation, priority 1975, dated 1977)

Assays:
Assay type in all cases: in vivo
housefly [1] = test: whole plant or invertebrate; details: Musca domestica, adult houseflies, mortality at 24 hours, read-out: percent kill, housefly (HF)
Procedure: (§1) The new 1-(4-butylphenyl)-1-(3,4-methylenedioxyphenyl)-2-nitroalkanes of this invention (Examples 4-6) were evaluated in standard greenhouse insecticide tests using housefly (HF), Mexican bean beetle (MB), Southern armyworm (SA) and yellow fever mosquito (YF). The rates of application were 500 and 100 ppm of active ingredient except in the mosquito test where test rates were 10 and 1 ppm. The results as set forth in Table I below indicate the percent kill of each insect species.
(§2) Housefly; 1 milliliter of an aqueous solution or suspension of the test compound was pipeted into a 9 cm. petri dish containing filter paper and 0.1 gram of granular sugar. Ten adult houseflies were admitted and the dish closed. Observations were made periodically for knockdown and at 24 hours for mortality.

Mexican bean beetle = test: whole plant or invertebrate; details: Epilachna varivestis, third or fourth instar larvae, 48 to 72 hour, read-out: percent kill, Mexican bean beetle (MB)
Procedure: as §1
(§3) Southern armyworm and Mexican bean beetle; lima bean leaves of uniform size were momentarily dipped in a water-acetone solution of the test compound and the treated leaves were then placed on moistened filter paper in 9 cm. petri dishes and allowed to air dry. When dry, five, third or fourth instar larvae were introduced and encouraged to feed on the treated foliage by means of confinement. The dishes were closed and held for observation of mortality and feeding during a 48 to 72 hour period.

Southern armyworm = test: whole plant or invertebrate; details: Spodoptera eridania, in Phaseolus lunatus, third or fourth instar larvae, 48 to 72 hour, read-out: percent kill, Southern armyworm (SA)
Procedure: as §1, §3

yellow fever mosquito = test: whole plant or invertebrate; details: Aedes aegypti, fourth stage larvae, 24 hour exposure, read-out: percent kill, yellow fever mosquito (YF); for mortality at 1 ppm: 1 ppm (line printed as 100 ppm; footnote: 10 and 1 ppm for YF); for mortality at 10 ppm: 10 ppm (line printed as 500 ppm; footnote: 10 and 1 ppm for YF)
Procedure: as §1
Yellow fever mosquito; fourth stage larvae were exposed to a solution of the active compound in water. The active material was initially dissolved in acetone and then added to the water. The compounds were screened at 10 ppm and at 1 ppm using approximately 10 larvae per 100 ml of treated water. Each treatment was replicated twice. Mortality was determined after 24 hour exposure.

housefly [2] = test: insecticide synergist test of mixtures on housefly; details: 25 ppm (0.0025 wt. %) total of both active ingredients; numbers in parentheses are % in mixture; 1440 min
Procedure: as §2
The new 1-(4-butylphenyl)-1-(3,4-methylenedioxyphenyl)-2-nitroalkanes of this invention were evaluated as insecticide synergists in standard insecticide tests. In general the compounds of this invention were combined with the insecticide -- 1-(p-tert-butylphenyl)-1-(p-ethoxyphenyl)-2-nitrobutane (pending application Serial No. 410,935, filed October 29, 1973) designated as Example 8 above -- in varying proportions starting from, for example, 90% Example 4, 5 or 6 plus 10% Example 8 and decreasing to, for example 10% Example 4, 5 or 6, plus 90% Example 8. In all cases, the total sum of active ingredients (i.e. Examples 4, 5 or 6 plus 8) equaled 25 ppm. These mixtures were tested on housefly following the standard greenhouse test procedure, outlined above. The results as set forth below indicate the percent kill (or percent control) of the insect species: […]

`CCC(C)c1ccc(C(c2ccc3c(c2)OCO3)C(CC)[N+](=O)[O-])cc1` (centres unmarked) [Example 6, 1-(4-sec-Butylphenyl)-1-(3,4-methylenedioxyphenyl)-2-nitrobutane] showed a mortality at 100 ppm (housefly [1]) of 100%, a mortality at 500 ppm (housefly [1]) of 100% and a mortality at 100 ppm (Mexican bean beetle) of 90%. It also gave a mortality at 500 ppm (Mexican bean beetle) of 100%, a mortality at 100 ppm (Southern armyworm) of 30% and a mortality at 500 ppm (Southern armyworm) of 100%. For the same compound, the mortality at 1 ppm (yellow fever mosquito) was 100%, the mortality at 10 ppm (yellow fever mosquito) was 100% and the “% CONTROL (percent kill or percent control), housefly” value (housefly [2]) was 0%.
`CCC(C(c1ccc(C(C)(C)C)cc1)c1ccc2c(c1)OCO2)[N+](=O)[O-]` (centres unmarked) [Example 4, 1-(4-tert-Butylphenyl)-1-(3,4-methylenedioxyphenyl)-2-nitrobutane] gave a mortality at 100 ppm (housefly [1]) of 20%, a mortality at 500 ppm (housefly [1]) of 100% and a mortality at 100 ppm (Mexican bean beetle) of 100%. It also gave a mortality at 500 ppm (Mexican bean beetle) of 100%, a mortality at 100 ppm (Southern armyworm) of 100% and a mortality at 500 ppm (Southern armyworm) of 100%. The mortality at 1 ppm (yellow fever mosquito) was 40% and the mortality at 10 ppm (yellow fever mosquito) was 100%.
For `CCOc1ccc(C(c2ccc(C(C)(C)C)cc2)C(CC)[N+](=O)[O-])cc1` (centres unmarked) [Example 8, 1-(p-tert-Butylphenyl)-1-(p-ethoxyphenyl)-2-nitrobutane], the “% CONTROL (percent kill or percent control), housefly” value (housefly [2]) was 40%.
With `CC(C(c1ccc(C(C)(C)C)cc1)c1ccc2c(c1)OCO2)[N+](=O)[O-]` (centres unmarked) [Example 5, 1-(4-tert-Butylphenyl)-1-(3,4-methylenedioxyphenyl)-2-nitropropane] the mortality at 100 ppm (housefly [1]) was 10%, the mortality at 500 ppm (housefly [1]) was 100% and the mortality at 100 ppm (Mexican bean beetle) was 100%. For the same compound, the mortality at 500 ppm (Mexican bean beetle) was 100%, the mortality at 100 ppm (Southern armyworm) was 80% and the mortality at 500 ppm (Southern armyworm) was 100%. For the same compound, the mortality at 1 ppm (yellow fever mosquito) was 100% and the mortality at 10 ppm (yellow fever mosquito) was 100%.
